From patent US12453731B2, “Aniline-based WDR5 protein-protein interaction inhibitor, and preparation method and use thereof” (CHINA PHARMACEUTICAL UNIVERSITY, priority 2019, dated 2025)
Like-named read-outs stand apart in the source and are kept apart here.

Key:
MLL1-WDR5 PPI = MLL1-WDR5 PPI (Homo sapiens (Human), UniProt P61964); assay: fluorescent probe assay of MLL1-WDR5 protein-protein interaction inhibition; format: binding; conditions: fluorescent probe based on MLL1 peptide, incubation 0.5 hrs, read-out: MLL1-WDR5 PPI inhibiting activity IC50
Procedure: In the present disclosure, a fluorescent molecular probe was constructed based on a MLL1 peptide fragment binding to WDR5, for use as a method for study on an aniline compound interfering with WDR5 protein-protein interaction, to determine an inhibition rate of the aniline compound at various concentrations, and then compute the IC50 value. Specific experimental steps: 20 μL of WDR5 protein, 20 μL of a fluorescent probe, and 20 μL of a compound of different concentration gradients were added to a 384-well plate respectively. After incubation for 0.5 hrs, the fluorescence was read on a multifunctional microplate reader at an excitation wavelength of 485 nm and an emission wavelength of 535 nm, to compute the mP value. The inhibition rate was computed as per the formula below, and then the IC50 value was computed using GraphPad software.

[1] = system: methylation level of H3K4; assay: inhibition of the methylation level of H3K4 (methyltransferase activity); format: biochemical
[2] = system: MV4-11 human acute mononuclear leukemia cells; assay: anti-proliferative activity against leukemia cells MV4-11; format: cell-based; conditions: read-out: GI50 (MV-411)
Description: (§1) Some compounds of the present disclosure have also been tested for the antiproliferative activity against leukemia cells.

[3] = system: Molm-13 human acute myeloid leukemia cells; assay: anti-proliferative activity against leukemia cells Molm-13; format: cell-based
Description: as §1

[4] = Homo sapiens, MOLM-13, Molm-13 cells
[5] = Homo sapiens, MV4-11, MV4-11 cells

Row | IC50 (MLL1-WDR5 PPI) [µM] | Whether the methylation level of H3K4 was inhibited [1] | GI50 [3, 4] [µM] | GI50 [2, 5] [µM] | GI50 ([3]; Molm-13 cells) [µM] | Structure (SMILES) | GI50 ([2]; MV4-11 cells) [µM]
1 | 10.3 |  |  |  |  | CN1CCN(c2ccc([N+](=O)[O-])cc2Nc2cc(Cl)ncn2)CC1 [Example 2, 6-chloro-N-(2-(4-methylpiperazin-1-yl)-5-nitrophenyl)pyrimidine-4-amine] | 
2 | 2.66 |  |  |  |  | CN1CCN(c2ccc([N+](=O)[O-])cc2Nc2ncnc(Cl)c2N)CC1 [Example 7, 6-chloro-N^4-(2-(4-methylpiperazin-1-yl)-5-nitrophenyl)pyrimidine-4,5-diamine] | 
3 | 0.186 | Yes | 23.4 | 16.7 |  | CN1CCN(c2ccc(-c3ccc(C(=O)N4CCOCC4)cc3)cc2Nc2ncnc(Cl)c2N)CC1 [Example 23, (3″-((5-amino-6-chloropyrimidin-4-yl)amino)-4-(4-methylpiperazin-1-yl)-[1,1′-biphenyl]-4-yl)(morpholino)methanone] | 
4 | 0.183 | Yes | 17.6 | 11 |  | CN1CCN(c2ccc(-c3ccc(C(=O)NCCN4CCOCC4)cc3)cc2Nc2ncnc(Cl)c2N)CC1 [Example 24, 3″-((5-amino-6-chloropyrimidin-4-yl)amino)-4″-(4-methylpiperazin-1-yl)-N-(2-morpholinoethyl)-[1,1′-biphenyl]-zole-4-carboxamide] | 
5 | 0.165 | Yes | 20.8 | 24.9 |  | CN1CCN(c2ccc(-c3ccc(C(=O)NCCCN4CCOCC4)cc3)cc2Nc2ncnc(Cl)c2N)CC1 [Example 25, 3″-((5-amino-6-chloropyrimidin-4-yl)amino)-4″-(4-methylpiperazin-1-yl)-N-(3-morpholinopropyl)-[1,1′-biphenyl]-zole-4-carboxamide] | 
6 | 0.36 | Yes | 30.7 | 48.6 |  | CN1CCN(c2ccc(-c3ccc(C(=O)N(C)C)cc3)cc2Nc2ncnc(Cl)c2N)CC1 [Example 26, 3″-((5-amino-6-chloropyrimidin-4-yl)amino)-N,N-dimethyl-4″-(4-methylpiperazin-1-yl)-[1,1′-biphenyl]-4-carboxamide] | 
7 | 5.55 | Yes |  |  |  | CN1CCN(c2ccc(-c3ccc(NC(=O)c4ccccc4)cc3)cc2Nc2ncnc(Cl)c2N)CC1 [Example 37, N-(3″-((5-amino-6-chloropyrimidin-4-yl)amino)-4″-(4-methylpiperazin-1-yl)-[1,1′-biphenyl]-4-yl)benzenecarboxamide] | 
8 | 1.56 |  |  |  |  | COc1ccc(-c2ccc(N3CCN(C)CC3)c(Nc3ncnc(Cl)c3N)c2)cc1 [Example 42, 6-chloro-N-(4′-methoxyl-4-(4-methylpiperazin-1-yl)-[1,1′-biphenyl]-3-yl)pyrimidine-4,5-diamine] | 
9 | 11.4 |  |  |  |  | CN1CCN(c2ccc(-c3ccoc3)cc2Nc2ncnc(Cl)c2N)CC1 [Example 43, 6-chloro-N^4-(5-(furan-3-yl)-2-(4-methylpiperazin-1-yl)phenyl)pyrimidine-4,5-diamine] | 
10 | 5.71 |  |  |  |  | CN1CCN(c2ccc(-c3cncnc3)cc2Nc2ncnc(Cl)c2N)CC1 [Example 44, 6-chloro-N^4-(2-(4-methylpiperazin-1-yl)-5-(pyrimidine-5-yl)phenyl)pyrimidine-4,5-diamine] | 
11 | 0.56 |  | 23.2 | 27.3 |  | CN1CCN(c2ccc(-c3ccncc3)cc2Nc2ncnc(Cl)c2N)CC1 [Example 45, 6-chloro-N^4-(2-(4-methylpiperazin-1-yl)-5-(pyridin-4-yl)phenyl)pyrimidine-4,5-diamine] | 
12 | 1.09 |  |  |  |  | CN1CCN(c2ccc(-n3cc(C(=O)NCCCN4CCOCC4)nn3)cc2Nc2ncnc(Cl)c2N)CC1 [Example 48, 1-(3-((5-amino-6-chloropyrimidin-4-yl)amino)-4-(4-methylpiperazin-1-yl)phenyl)-N-(3-morpholinopropyl)-1H-1,2,3-triazole-4-carboxamide] | 
13 | 1.25 |  |  |  |  | CN1CCN(C(=O)c2cn(-c3ccc(N4CCN(C)CC4)c(Nc4ncnc(Cl)c4N)c3)nn2)CC1 [Example 49, (1-(3-((5-amino-6-chloropyrimidin-4-yl)amino)-4-(4-methylpiperazin-1-yl)phenyl)-1H-1,2,3-triazole-4-yl)(4-methylpiperazin-1-yl)methanone] | 
14 |  | Yes | 35.5 | 29.6 |  | CN1CCN(c2ccc(-n3cc(C(=O)N(C)C)nn3)cc2Nc2ncnc(Cl)c2N)CC1 [Example 50, 1-(3-((5-amino-6-chloropyrimidin-4-yl)amino)-4-(4-methylpiperazin-1-yl)phenyl)-N,N-dimethyl-1H-1,2,3-triazole-4-carboxamide] | 
15 |  | Yes |  |  | 39 | CN1CCN(c2ccc(-n3cc(C(=O)N(C)C)nn3)cc2Nc2ncnc(Cl)c2N)CC1 [Example 51, 1-(3-((5-amino-6-chloropyrimidin-4-yl)amino)-4-(4-methylpiperazin-1-yl)phenyl)-N,N-dimethyl-1H-1,2,3-triazole-4-carboxamide] | 38
16 | 1.56 |  |  |  |  | CN(C)CCNC(=O)c1cn(-c2ccc(N3CCN(C)CC3)c(Nc3ncnc(Cl)c3N)c2)nn1 [Example 52, 1-(3-((5-amino-6-chloropyrimidin-4-yl)amino)-4-(4-methylpiperazin-1-yl)phenyl)-N-(2-(dimethylamino)ethyl)-1H-1,2,3-triazole-4-carboxamide] | 
17 | 1.61 |  |  |  |  | CN1CCN(c2ccc(-n3cc(C(=O)NCCN4CCCC4)nn3)cc2Nc2ncnc(Cl)c2N)CC1 [Example 53, 1-(3-((5-amino-6-chloropyrimidin-4-yl)amino)-4-(4-methylpiperazin-1-yl)phenyl)-N-(2-(pyrrolidin-1-yl)ethyl)-1H-1,2,3-triazole-4-carboxamide] | 
18 | 0.671 |  |  |  |  | Cc1c(-c2ccc(C(=O)N(C)C)cc2)ccc(N2CCN(C)CC2)c1Nc1ncnc(Cl)c1N [Example 65, 3″-((5-amino-6-chloropyrimidin-4-yl)amino)-N,N,2′-trimethyl-4″-(4-methylpiperazin-1-yl)-[1,1′-biphenyl]-4-carboxamide] | 
19 | 0.04 | Yes |  | 14.4 |  | COC(=O)c1ccc(-c2cc(Nc3ncnc(Cl)c3N)c(N3CCN(C)CC3)cc2F)cc1 [Example 66, Methyl 5′-((5-amino-6-chloropyrimidin-4-yl)amino)-2′-fluoro-4′-(4-methylpiperazin-1-yl)-[1,1′-biphenyl]-4-carboxylate] | 
20 | 0.316 | Yes |  |  |  | COC(=O)c1ccc(-c2cc(Nc3ncnc(Cl)c3N)c(N3CCN(C)CC3)cc2C)cc1 [Example 73, Methyl 5′-((5-amino-6-chloropyrimidin-4-yl)amino)-2′-methyl-4′-(4-methylpiperazin-1-yl)-[1,1′-biphenyl]-4-carboxylate] | 
21 | 0.465 | Yes |  |  |  | Cc1cc(N2CCN(C)CC2)c(Nc2ncnc(Cl)c2N)cc1-c1ccc(C(=O)NCCCN2CCOCC2)cc1 [Example 74, 5″-((5-amino-6-chloropyrimidin-4-yl)amino)-2′-methyl-4″-(4-methylpiperazin-1-yl)-N-(3-morpholinopropyl)-[1,11,1′-terphenyl]-4-carboxamide] | 

Row | Structure (SMILES) | IC50 (MLL1-WDR5 PPI) [µM] | Whether the methylation level of H3K4 was inhibited [1] | GI50 [3, 4] [µM] | GI50 [2, 5] [µM] | GI50 ([3]; Molm-13 cells) [µM] | GI50 ([2]; MV4-11 cells) [µM]
22 | Cc1c(F)c(N)cc(C(=O)Nc2cc(-c3ccc(N)cc3)ccc2N2CCN(C)CC2)c1Cl [DDO-2084, reference compound] | 338 | Yes |  |  |  | 17.7 ± 2.3
